pIC50: −log10 of the molar value.

One may read the pIC50 as −log10 of the IC50, conventionally taken in molar units.

Sequence of SUV420H1 enzyme (Q4FZB7 whole entry): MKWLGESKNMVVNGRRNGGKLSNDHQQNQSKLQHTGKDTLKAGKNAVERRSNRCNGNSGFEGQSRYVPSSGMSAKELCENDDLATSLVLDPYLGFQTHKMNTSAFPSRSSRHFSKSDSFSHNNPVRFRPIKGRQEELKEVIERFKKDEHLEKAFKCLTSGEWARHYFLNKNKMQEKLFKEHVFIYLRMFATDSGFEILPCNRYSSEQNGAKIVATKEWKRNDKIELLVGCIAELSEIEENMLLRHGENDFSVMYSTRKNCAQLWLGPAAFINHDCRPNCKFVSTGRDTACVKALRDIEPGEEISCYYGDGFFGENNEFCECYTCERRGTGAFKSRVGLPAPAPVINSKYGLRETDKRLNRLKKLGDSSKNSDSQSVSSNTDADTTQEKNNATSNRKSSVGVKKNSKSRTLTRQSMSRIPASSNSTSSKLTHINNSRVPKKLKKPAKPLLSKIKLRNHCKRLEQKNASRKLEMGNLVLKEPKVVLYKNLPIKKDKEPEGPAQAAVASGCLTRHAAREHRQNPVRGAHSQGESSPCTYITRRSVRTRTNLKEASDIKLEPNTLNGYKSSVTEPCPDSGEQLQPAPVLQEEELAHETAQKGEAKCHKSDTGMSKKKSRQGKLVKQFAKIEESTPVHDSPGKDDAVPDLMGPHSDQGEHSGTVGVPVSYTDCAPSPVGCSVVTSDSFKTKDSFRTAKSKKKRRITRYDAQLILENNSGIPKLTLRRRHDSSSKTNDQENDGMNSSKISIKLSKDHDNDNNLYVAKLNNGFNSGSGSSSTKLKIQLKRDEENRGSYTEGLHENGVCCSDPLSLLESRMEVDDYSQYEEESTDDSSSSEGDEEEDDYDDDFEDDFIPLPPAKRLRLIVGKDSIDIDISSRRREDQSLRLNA

For the test, the target named is SUV420H1 enzyme (Homo sapiens, UniProt Q4FZB7). The test can be described thus: TR-FRET SAH SUV420H1 enzyme inhibition assay. It is filed as biochemical. The note with it: Histone Peptide H4(8-30)me1 and SAM, overnight at room temp, TR-FRET detection of SAH, read-out: TR-FRET SAH_SUV420H1 IC50. In a few lines:
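SUV420H1 (90 nM) preincubated 30 min with compound (3-fold dilutions, 50 to 0.00075 μM), then H4(8-30)me1 peptide 5 nM and SAM 4 nM added, overnight at room temp. SAH product detected by TR-FRET with Tb anti-SAH antibody and Oregon Green-SAH in RIPA buffer, 4 h; IC50 from Hill fit, asymptotes fixed 0-100%.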
Background: Time-resolved FRET reads energy transfer from a long-lived donor to a nearby acceptor.
As for `Cc1cc(C#N)ccc1C(=O)NCc1cc2cc(C3=CCC(F)(F)CC3)cc(Cn3cnc4c(N)ncnc43)c2[nH]1` [Example 306, N-({7-[(6-amino-9H-purin-9-yl)methyl]-5-(4,4-difluorocyclohex-1-en-1-yl)-1H-indol-2-yl}methyl)-4-cyano-2-methylbenzamide], the pIC50 was 7.25. As to `Nc1ncnc2c1ncn2Cc1cc(Cl)cc2cc(CNCc3ccc(Cl)c(Cl)c3)[nH]c12` [Example 213, 9-[(5-chloro-2-{[(3,4-dichlorobenzyl)amino]methyl}-1H-indol-7-yl)methyl]-9H-purin-6-amine], the pIC50 was 5.56.

In the case of `NCc1cc2cc(-c3ccc(CO)cc3)cc(Cn3cnc4c(N)ncnc43)c2[nH]1` [Example 33, (4-{2-(aminomethyl)-7-[(6-amino-9H-purin-9-yl)methyl]-1H-indol-5-yl}phenyl)methanol], the pIC50 is 6.28. On to `CN(C)CCNC(=O)c1ccc(-c2cc(Cn3cnc4c(N)ncnc43)c3[nH]c(CN)cc3c2)cc1` [Example 49, 4-{2-(aminomethyl)-7-[(6-amino-9H-purin-9-yl)methyl]-1H-indol-5-yl}-N-[2-(dimethylamino)ethyl]benzamide], for which the pIC50 was 6.71. With `COc1cccc(CNCc2cc3cc(Cl)cc(Cn4cnc5c(N)ncnc54)c3[nH]2)c1` [Example 249, 9-[(5-chloro-2-{[(3-methoxybenzyl)amino]methyl}-1H-indol-7-yl)methyl]-9H-purin-6-amine], the pIC50 was 5.48. The same measure for `N#Cc1cccc(CNCc2cc3cc(Cl)cc(Cn4cnc5c(N)ncnc54)c3[nH]2)c1` [Example 268, 3-{[({7-[(6-amino-9H-purin-9-yl)methyl]-5-chloro-1H-indol-2-yl}methyl)amino]methyl}benzonitrile]: 5.33; for `Nc1ncnc2c1ncn2Cc1cc(Cl)cc2cc(CNC(=O)Cc3ccc(Cl)cc3)[nH]c12` [Example 251, N-({7-[(6-amino-9H-purin-9-yl)methyl]-5-chloro-1H-indol-2-yl}methyl)-2-(4-chlorophenyl)acetamide]: below 4.30; for `N#Cc1ccccc1CNCc1cc2cc(Cl)cc(Cn3cnc4c(N)ncnc43)c2[nH]1` [Example 269, 2-{[({7-[(6-amino-9H-purin-9-yl)methyl]-5-chloro-1H-indol-2-yl}methyl)amino]methyl}benzonitrile]: 5.25.

In the case of `Cc1noc(C)c1C(=O)NCc1cc2cc(-c3cccc(C(=O)N4CCOCC4)c3)cc(Cn3cnc4c(N)ncnc43)c2[nH]1` [Example 180, N-({7-[(6-amino-9H-purin-9-yl)methyl]-5-[3-(morpholin-4-ylcarbonyl)phenyl]-1H-indol-2-yl}methyl)-3,5-dimethyl-1,2-oxazole-4-carboxamide], the pIC50 was 6.89. On to `Nc1ncnc2c1ncn2Cc1cc(Cl)cc2cc(CNC(=O)c3ccc[nH]3)[nH]c12` [Example 146, N-({7-[(6-amino-9H-purin-9-yl)methyl]-5-chloro-1H-indol-2-yl}methyl)-1H-pyrrole-2-carboxamide], for which the pIC50 was 4.85.

Take `Nc1ncnc2c1ncn2Cc1cc(Cl)cc2cc(CNC(=O)c3ccccc3C(F)(F)F)[nH]c12` [Example 257, N-({7-[(6-amino-9H-purin-9-yl)methyl]-5-chloro-1H-indol-2-yl}methyl)-2-(trifluoromethyl)benzamide]: the pIC50 was 6.31. Take `COc1cc(C(=O)NCc2cc3cc(Cl)cc(Cn4cnc5c(N)ncnc54)c3[nH]2)ccc1C` [Example 300, N-({7-[(6-amino-9H-purin-9-yl)methyl]-5-chloro-1H-indol-2-yl}methyl)-3-methoxy-4-methylbenzamide]: the pIC50 was 5.38. With `Nc1ncnc2c1ncn2Cc1cc(Cl)cc2cc(CNC(=O)c3cnoc3C3CC3)[nH]c12` [Example 189, N-({7-[(6-amino-9H-purin-9-yl)methyl]-5-chloro-1H-indol-2-yl}methyl)-5-cyclopropyl-1,2-oxazole-4-carboxamide] the figure was 5.47.
